# Test results published in PMC5675611, “GZD824 suppresses the growth of human B cell precursor acute lymphoblastic leukemia cells by inhibiting the SRC kinase and PI3K/AKT pathways” (Oncotarget, 2016).
# Assays:
# Type in all cases: cell-based, human
# [1] = tested on: phosphorylated AKT (Ser473); test: Western blot of primary pre-B ALL cells; settings: GZD824 1μM, IGF-1 10ng/ML, 24 hours
# Method: (§1) Figure 6 GZD824 inhibits PI3K/AKT signaling in pre-B ALL cells A. Cells were harvested from PB, SP, and BM of P#2 xenograft mice and cultured with or without 1μM GZD824 for 24h. Bars represent the mean percentages of AnnexinV+ cells in each group. B. Primary pre-B ALL cells from spleen of P#1 xenograft mouse treated with DMSO, GZD824 (1μM), IGF-1 (10ng/ML), or both. Bars represent the mean percentages of AnnexinV+ cells in each group. C. Western blot analysis of NALM6 cells. Cells were treated with DMSO, GZD824 (1μM), or GZD824 (3μM) for 24 hours. Lysates were analyzed with antibodies against IRS1, phosphate AKT, and AKT. D. Western blot analysis of primary pre-B ALL cells. Primary cells treated with GZD824 (1μM), IGF-1 (10ng/ML), or both for 24 hours. Lysates were analyzed with antibodies against Irs1, phosphate AKT, and AKT.
# (§2) For Western blot analysis, 30 μg of total protein extracts prepared from NALM6 or primary pre-B ALL cells from SP of PDX mice were separated on SDS-PAGE and transferred to a PVDF membrane (Bio-Rad, Hercules, CA, USA). The following commercially available antibodies and dilutions were used for Western blotting: human anti-STAT3 (ab119352, Abcam, UK), human anti-phospho-STAT3 (Y705) (ab76315, Abcam, UK), human anti-SRC (ab32102, Abcam, UK), human anti-phospho-SRC (Y419) (ab185617, Abcam, UK), human anti-RB (9313, Cell Signaling Technology, MA, USA), human anti-phospho–RB (Ser807/811) (8516, Cell Signaling Technology, MA, USA), human anti-C-myc (13987, Cell Signaling Technology, MA, USA), anti-AKT (pan) (4691P, Cell Signaling Technology, MA, USA), anti-phospho-AKT (Ser473) (4060P, Cell Signaling Technology, MA, USA), anti-IRS-1 (2390S, Cell Signaling Technology, MA, USA), and human anti–β-actin (4970, Cell Signaling Technology, MA, USA). Western blot analysis was performed with cell lines or primary pre-B ALL cells from SP following GZD824 treatment, and signal intensities were normalized to β-actin signals.
# IRS1 = test: Western blot of primary pre-B ALL cells; settings: GZD824 1μM, IGF-1 10ng/ML, 24 hours
# Method: as §1, §2
# NALM6 cells = test: Annexin V apoptosis flow cytometry
# Method: Human pre-B ALL cell lines NALM6 and SUPB15 were purchased from American Type Culture Collection (ATCC, Maryland, USA). All pre-B ALL cell lines were maintained in cell culture media and conditions as recommended by the ATCC. Cells were treated with GZD824 for 24 hours. GZD824 (3μM, 1μM, or 0.5μM) was used in the experiments unless otherwise noted. NALM6 and SUPB15 cells were maintained in RPMI-1640 medium (Gibco, New York, NY, USA) with 10% fetal bovine serum (Biochrom, Melbourne, Australia).
# (§3) For identification of apoptotic cells among NALM6, SUPB15, and primary pre-B ALL cells, the GZD824-treated cells were stained with Annexin V Apoptosis Detection Kit (88-8007, BD ebioscience, CA, USA) according to the manufacturer's instructions (Affymetrix ebioscience, CA, USA) and then subjected to flow cytometric analysis by the Accuri™ C6 (BD Biosciences, CA, USA). For the in vitro drug sensitivity test in Figure 6A, the human CD45+ cells in spleen and bone marrow from sick mice account for over 95% of the total. We enriched human CD45+ cells in PB by MACS according to the manufacturer's instruction. After the enrichment, the purity of human CD45+ cell in PB reached 95%. The percentage of apoptotic cells was demarcated as the amount of both early and late facets of apoptosis (annexin V positive), as previously described. All data were analyzed with FlowJo software (Tree Star, Inc., Ashland, USA).
# primary pre-B ALL cells = test: Annexin V apoptosis of primary pre-B ALL cells
# Method: Human pre-B ALL cells were obtained from spleen (SP) of sick pre-B ALL xenograft mice. Human CD45+ pre-B ALL cells, accounting for over 95% of the total SP mononuclear cells, were subjected in vitro assay. To determine the in vitro anticancer efficacy of GZD824, the drug was applied to fresh splenic pre-B ALL cells that were directly isolated from sick pre-B ALL xenograft mice in 3 independent experiments. In addition, fresh splenic cells were analyzed 24 hours post drug treatment. At this time point about 20% of the total cells in the vehicle group are apoptotic. […] All cells were cultured at 37°C in 5% carbon dioxide and a normal level of oxygen.
# as §3
smiles,measurement,setting,value
Cc1ccc(C(=O)Nc2ccc(CN3CCN(C)CC3)c(C(F)(F)F)c2)cc1C#Cc1cnc2[nH]ncc2c1 [GZD824],levels of phosphorylated AKT (Ser473),[1],reduction
same,levels of IRS1,IRS1,reduction
same,percentages of apoptotic cells,"NALM6 cells; NALM6, 500 nM",did not increase
same,apoptotic rate,"NALM6 cells; NALM6, 1μM, 24 h",moderate
same,"apoptosis (Annexin V-positive cells), comparison of inhibitors","NALM6 cells; NALM6, 3μM of drug, 24 hours, Fig 5E",significantly increased apoptotic level
same,cells undergoing apoptosis (AnnexinV+),"NALM6 cells; NALM6, 3μM, 24 h",74.4%
same,percentages of apoptotic cells,"primary pre-B ALL cells; all five patient samples (P#1-P#5), 1μM, vs DMSO",significantly increased
same,percentages of apoptotic pre-B ALL cells derived from BM compared to those from SP and PB,"primary pre-B ALL cells; cells from P#2 xenograft mice, 1μM GZD824, 24 hours in vitro",significantly lower
same,"apoptotic levels, GZD824 alone vs both GZD824 and IGF-1","primary pre-B ALL cells; primary pre-B ALL cells from spleen of P#1 xenograft mouse, GZD824 1μM, IGF-1 10ng/ML",much higher apoptotic levels
